In one data set the test system is pests. As to the kind of experiment: Pesticidal effectiveness, overall. Conditions: in vivo. An excerpt: The pesticidal activity of the compounds according to this invention against green rice leafhoppers (Nephotettix cincticeps Uhler), rice stem borers (Chilo suppressalis Walker), tobacco cutworms (Prodenia litura […]) and houseflies (Musca domestica), as examples of the pests against which the same compounds are considered effective, the acute toxicity data on the same compounds as determined in rat by the oral route and the median tolerance limit (TLm) data on the same compounds as determined in killifish (Orizias latipes) and guppies (Lebistes reticulatus) are shown in Table 1 alongside the corresponding values for various control compounds. The pesticidal effects were determined by the procedures set forth in Test Examples 1 through 4, while the acute toxicity to rat was determined by the procedure set forth in Test Example 9 and the toxicity to fish was determined by the procedures set forth in Test Examples 6 and 7, all those Examples appearing hereinafter.

The next data set has as its system fish. Briefly: Toxicity to fish compared with other pyrethroids. An excerpt:
This invention is the culmination of the above findings.

The next data set has as its system rat. Briefly: Acute toxicity test in rat by the oral route. It is filed as in vivo. Conditions: Table 1, rat, 10080 min. An excerpt: Acute toxicity test in rat by the oral route
Data set [1] has as its system killifish (Orizias latipes). As to the kind of experiment: Fish toxicity test with killifish. Format: in vivo. Conditions: Table 1; 48 hrs. In a few lines: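 Test compound dispensed from acetone solution into water at set concentrations; ten aerated-water killifish (~0.25 g, ~2.5 cm) held at 25±1° C. Deaths scored after 48 hours; TLm (median tolerance limit, ppm) determined.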

A further data set has as its system carp (Cyprinus carpio L). As to the kind of experiment: Fish toxicity test with carp. Format: in vivo. Conditions: 48 hrs., 21±1° C.; 2880 min. The procedure, abridged: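 Compound in acetone with Tween-20 dispersed in 50 L aerated water at a set concentration; five carp (about 6 g, 6 cm) exposed at 21±1° C. Deaths checked after 48 h, and TLm (median tolerance limit, ppm) determined.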

Data set [2] can be described thus: Fish toxicity test with guppies. It is filed as in vivo, Lebistes reticulatus. Conditions: guppy, water, guppies, 20° C., read-out: TLm (48 hrs.). In a few lines: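 Ten female guppies, 3–4 months old, held at 20 °C in water containing surfactant and test compound added in acetone solution. TLm (median tolerance limit, ppm) determined.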
For a further data set, the system named is crop plants. Briefly: Phytotoxicity test. Format: in vivo. Conditions: 2,000 ppm solution on leaves, after 10 days. An excerpt:
A 2,000 ppm solution of each of the cis- and trans-isomers and a 50:50 mixture of cis- and trans-isomers of Compound (1) and of Compound (2), and a 50:50 mixture of the cis- and trans-isomers of Compound (B) and Compound (E) was applied to the leaves of the following crop plants.
After 10 days, the crop plants were examined for their phytotoxicities.

For `C#CC(OC(=O)[C@@H]1[C@@H](C=C(Cl)Cl)C1(C)C)c1cccc(Oc2ccc(Cl)cc2)c1` (relative stereo) [Compound (2) trans-], in the data set on pests, the “pesticidal effectiveness in words” value is on record as “outstanding in pesticidal activity against various pests”. Moreover, the “toxicity to fish in words” value in the data set on fish was “by far low in toxicity to fish”.

`C#CC(OC(=O)C1C(C=C(Cl)Cl)C1(C)C)c1cccc(Oc2ccc(Cl)cc2)c1` (stereo not drawn) [Compound (2) cis-/trans- = 50:50, 3-(4-chlorophenoxy)-α-ethynylbenzyl 2,2-dimethyl-3-(2,2-dichlorovinyl)cyclopropanecarboxylate]: the “Acute oral toxicity to rat LD50” value with rat is on record as greater than 3000 mg/kg. Besides, the “Toxicity to fish TLm, killifish” value in data set [1] is given as greater than 10 ppm. Also, the “TLm, Carp (48 hrs.)” value in the data set on carp (Cyprinus carpio L) was 2.8 ppm. Further, in data set [2], the LC50 at 48 h is greater than 10 µg/mL.

Turning to `CC1(C)C(C=C(Cl)Cl)C1C(=O)OCc1cccc(Oc2ccccc2)c1` (centres unmarked) [Compound (B), Permethrin], the phytotoxicity result with crop plants is on record as “did not cause any injury to each one of the crop plants”. The LC50 at 48 h in data set [2] is less than 0.5 µg/mL.

Values taken from patent US4389412A, “Substituted cyclopropanecarboxylic acid esters and pesticidal compositions containing the same as active ingredient” (priority 1979, dated 1983).
